Among the data in patent US20100317673A1, “N-HETEROCYCLIC-IMIDAZO[1,2-a]PYRIDINE-2-CARBOXAMIDE DERIVATIVES, THEIR PREPARATION AND THEIR THERAPEUTIC APPLICATION” (SANOFI-AVENTIS, priority 2008, published 2010) are EC50 values, retold here.

For the test, the target named is T1, mouse Nurr1 receptor (Mus musculus, UniProt Q06219).
T1 construct: a cell line (N2A) endogenously expressing the mouse Nurr1 receptor; host or cells: Neuro-2A (N2A) mouse neuroblastoma cells stably transfected with 8NBRE-luciferase
T1 sequence (Q06219 whole entry): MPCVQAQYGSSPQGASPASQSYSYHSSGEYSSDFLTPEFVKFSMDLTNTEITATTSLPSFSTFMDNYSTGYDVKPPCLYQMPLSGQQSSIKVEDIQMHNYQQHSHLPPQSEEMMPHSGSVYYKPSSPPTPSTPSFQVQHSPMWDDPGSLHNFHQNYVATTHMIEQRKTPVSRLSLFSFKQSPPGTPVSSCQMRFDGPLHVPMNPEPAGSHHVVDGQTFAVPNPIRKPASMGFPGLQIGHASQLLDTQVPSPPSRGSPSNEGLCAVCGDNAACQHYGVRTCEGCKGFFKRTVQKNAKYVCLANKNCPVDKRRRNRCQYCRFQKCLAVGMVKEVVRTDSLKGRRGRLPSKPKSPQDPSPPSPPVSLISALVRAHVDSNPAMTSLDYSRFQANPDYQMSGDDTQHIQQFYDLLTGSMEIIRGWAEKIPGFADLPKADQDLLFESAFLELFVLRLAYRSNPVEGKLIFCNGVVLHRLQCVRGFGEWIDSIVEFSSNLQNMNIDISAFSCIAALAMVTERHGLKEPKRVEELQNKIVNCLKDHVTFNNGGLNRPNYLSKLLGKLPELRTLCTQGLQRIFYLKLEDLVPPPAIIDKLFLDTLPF
The test can be described thus: In vitro activity on N2A cells (NBRE-luciferase reporter). It is filed as cell-based. Particulars: N2A (Neuro-2A) cells endogenously expressing mouse Nurr1, stably transfected with 8NBRE-luciferase; 24 hours incubation. As to the method: The activity of the compounds according to the invention was evaluated on a cell line (N2A) endogenously expressing the mouse Nurr1 receptor and stably transfected with the NOT binding response element (NBRE) coupled to the luciferase reporter gene. The EC50 values are between 0.01 and 1000 nM. The assays were carried out according to the procedure described below.
The Neuro-2A cell line comes from a standard commercial source (ATCC). The Neuro-2A clone was obtained, from a spontaneous tumour originating from an A albino mouse strain, by R. J Klebe et al. This Neuro-2A line is subsequently stably transfected with 8NBRE-luciferase. The N2A-8NBRE cells are cultured until confluence in 75 cm^2 culture flasks containing DMEM supplemented with 10% of foetal calf serum, 4.5 g/l of glucose and 0.4 mg/ml of geneticin. After a week of culture, the cells are recovered with 0.25% trypsin for 30 seconds and then resuspended in DMEM without phenol red, containing 4.5 g/l of glucose and 10% of Hyclone delipidized serum, and deposited into transparent-bottom 96-well white plates. The cells are deposited at a rate of 60 000 per well in 75 μl for 24 hours before the addition of the products. The products are applied in 25 μl and incubated for a further 24 hours. On the day of the measurement, an equivalent volume (100 μl) of Steadylite is added to each well and then left for a period of 30 minutes in order to obtain complete cell lysis and maximum signal production. The plates are subsequently measured in a luminescence counter for microplates after having been sealed with an adhesive film. The products are prepared in the form of a stock solution at 10^−2M and then diluted in 100% of DMSO. Each product concentration is prediluted in culture medium before incubation with the cells, thus containing 0.625% final concentration of DMSO.
The term EC50 denotes the midpoint of the concentration-response curve. High values mean lower potency in that assay, low ones higher potency in that assay. As to `O=C(Nc1ccccn1)c1cn2cc(Cl)ccc2n1` [Compound 4, 6-Chloro-N-(pyridin-2-yl)imidazo[1,2-a]pyridine-2-carboxamide], the EC50 turned out to be 2.2 nM.

In turn, `O=C(Nc1ccccn1)c1cn2cc(-c3cccc(CO)c3)ccc2n1` [Compound 7, 6-[3-(Hydroxymethyl)phenyl]-N-(pyridin-2-yl)imidazo[1,2-a]pyridine-2-carboxamide] displayed an EC50 of 0.04 nM.

`CN(C)c1ccc2nc(C(=O)Nc3ccccn3)cn2c1` [Compound 8, 6-(Dimethylamino)-N-(pyridin-2-yl)imidazo[1,2-a]pyridine-2-carboxamide] displayed an EC50 of 0.5 nM.

Regarding `CN(C)c1ccc2nc(C(=O)Nc3ccon3)cn2c1` [Compound 39, 6-(Dimethylamino)-N-(isoxazol-3-yl)imidazo[1,2-a]pyridine-2-carboxamide], the EC50 turned out to be 10.5 nM.
